Consider 31 compounds from patent EP1285920A1, “C10 Ester sustituted taxanes as antitumor agents” (Florida State University Research Foundation, Inc., priority 2001, dated 2003).

This experiment concerns HCT116. The experiment in a line: In Vitro cytotoxicity measured by the cell colony formation assay. Type of experiment: cell-based, human. To be noted: Homo sapiens, HCT-116; read-out: IN VITRO ID 50 HCT116. The method, then:
Four hundred cells (HCT116) were plated in 60 mm Petri dishes containing 2.7 mL of medium (modified McCoy's 5a medium containing 10% fetal bovine serum and 100 units/mL penicillin and […] streptomycin). The cells were incubated in a CO2 incubator at 37 °C for 5 h for attachment to the bottom of Petri dishes. The compounds identified in Example 2 were made up fresh in medium at ten times the final concentration, and then 0.3 mL of this stock solution was added to the 2.7 mL of medium in the dish. The cells were then incubated with drugs for 72 h at 37 °C. At the end of incubation the drug-containing media were decanted, the dishes were rinsed with 4 mL of Hank's Balance Salt Solution (HBSS), 5 mL of fresh medium was added, and the dishes were returned to the incubator for colony formation. The cell colonies were counted using a colony counter after incubation for 7 days.
As for `CCC(=O)O[C@H]1C(=O)[C@@]2(C)[C@H]([C@H](OC(=O)c3ccccc3)[C@]3(O)C[C@H](OC(=O)[C@H](O)[C@@H](NC(=O)OC(C)(C)C)c4cccnc4)C(C)=C1C3(C)C)[C@]1(OC(C)=O)CO[C@@H]1C[C@@H]2O` [Compound 0517], the IC50 was under 10 nM.
Next, `CCC(=O)O[C@H]1C(=O)[C@@]2(C)[C@H]([C@H](OC(=O)c3ccccc3)[C@]3(O)C[C@H](OC(=O)[C@H](O)[C@@H](NC(=O)OC(C)(C)C)c4ccncc4)C(C)=C1C3(C)C)[C@]1(OC(C)=O)CO[C@@H]1C[C@@H]2O` [Compound 0521]: under 1 nM; `CCC(=O)O[C@H]1C(=O)[C@@]2(C)[C@H]([C@H](OC(=O)c3ccccc3)[C@]3(O)C[C@H](OC(=O)[C@H](O)[C@@H](NC(=O)OC(C)(C)C)c4ccoc4)C(C)=C1C3(C)C)[C@]1(OC(C)=O)CO[C@@H]1C[C@@H]2O` [Compound 0549]: under 10 nM.
As to `CCC(=O)O[C@H]1C(=O)[C@@]2(C)[C@H]([C@H](OC(=O)c3ccccc3)[C@]3(O)C[C@H](OC(=O)[C@H](O)[C@@H](NC(=O)OC(C)(C)C)c4ccsc4)C(C)=C1C3(C)C)[C@]1(OC(C)=O)CO[C@@H]1C[C@@H]2O` [Compound 0562], the IC50 was under 1 nM.
Consider `CCC(=O)O[C@H]1C(=O)[C@@]2(C)[C@H]([C@H](OC(=O)c3ccccc3)[C@]3(O)C[C@H](OC(=O)[C@H](O)[C@@H](NC(=O)OC(C)(C)C)C4CC4)C(C)=C1C3(C)C)[C@]1(OC(C)=O)CO[C@@H]1C[C@@H]2O` [Compound 0578], for which the IC50 was under 1 nM.
Next, `CCC(=O)O[C@H]1C(=O)[C@@]2(C)[C@H]([C@H](OC(=O)c3ccccc3)[C@]3(O)C[C@H](OC(=O)[C@H](O)[C@@H](NC(=O)OC(C)(C)C)C(C)C)C(C)=C1C3(C)C)[C@]1(OC(C)=O)CO[C@@H]1C[C@@H]2O` [Compound 0583]: under 10 nM; `CCC(=O)O[C@H]1C(=O)[C@@]2(C)[C@H]([C@H](OC(=O)c3ccccc3)[C@]3(O)C[C@H](OC(=O)[C@H](O)[C@@H](NC(=O)OC(C)(C)C)C4CCC4)C(C)=C1C3(C)C)[C@]1(OC(C)=O)CO[C@@H]1C[C@@H]2O` [Compound 0596]: under 10 nM.
Next, `CCC(=O)O[C@H]1C(=O)[C@@]2(C)[C@H]([C@H](OC(=O)c3ccccc3)[C@]3(O)C[C@H](OC(=O)[C@H](O)[C@@H](NC(=O)OC(C)(C)C)c4ccc([N+](=O)[O-])cc4)C(C)=C1C3(C)C)[C@]1(OC(C)=O)CO[C@@H]1C[C@@H]2O` [Compound 0602]: under 1 nM; `CCC(=O)O[C@H]1C(=O)[C@@]2(C)[C@H]([C@H](OC(=O)c3ccccc3)[C@]3(O)C[C@H](OC(=O)[C@H](O)[C@H](C=C(C)C)NC(=O)c4ccccc4)C(C)=C1C3(C)C)[C@]1(OC(C)=O)CO[C@@H]1C[C@@H]2O` [Compound 0625]: under 1 nM; `CCC(=O)O[C@H]1C(=O)[C@@]2(C)[C@H]([C@H](OC(=O)c3ccccc3)[C@]3(O)C[C@H](OC(=O)[C@H](O)[C@@H](NC(=O)c4ccccc4)c4ccccn4)C(C)=C1C3(C)C)[C@]1(OC(C)=O)CO[C@@H]1C[C@@H]2O` [Compound 0634]: under 10 nM.
For the compound `CCC(=O)O[C@H]1C(=O)[C@@]2(C)[C@H]([C@H](OC(=O)c3ccccc3)[C@]3(O)C[C@H](OC(=O)[C@H](O)[C@@H](NC(=O)c4ccccc4)c4cccnc4)C(C)=C1C3(C)C)[C@]1(OC(C)=O)CO[C@@H]1C[C@@H]2O` [Compound 0647], the IC50 worked out at 12 nM.
With `CCC(=O)O[C@H]1C(=O)[C@@]2(C)[C@H]([C@H](OC(=O)c3ccccc3)[C@]3(O)C[C@H](OC(=O)[C@H](O)[C@@H](NC(=O)c4ccccc4)c4ccncc4)C(C)=C1C3(C)C)[C@]1(OC(C)=O)CO[C@@H]1C[C@@H]2O` [Compound 0659] the figure was under 1 nM; with `CCC(=O)O[C@H]1C(=O)[C@@]2(C)[C@H]([C@H](OC(=O)c3ccccc3)[C@]3(O)C[C@H](OC(=O)[C@H](O)[C@@H](NC(=O)c4ccccc4)c4ccsc4)C(C)=C1C3(C)C)[C@]1(OC(C)=O)CO[C@@H]1C[C@@H]2O` [Compound 0691], under 1 nM; with `CCC(=O)O[C@H]1C(=O)[C@@]2(C)[C@H]([C@H](OC(=O)c3ccccc3)[C@]3(O)C[C@H](OC(=O)[C@H](O)[C@@H](NC(=O)c4ccccc4)C(C)C)C(C)=C1C3(C)C)[C@]1(OC(C)=O)CO[C@@H]1C[C@@H]2O` [Compound 0719], under 10 nM.
Next, `CCC(=O)O[C@H]1C(=O)[C@@]2(C)[C@H]([C@H](OC(=O)c3ccccc3)[C@]3(O)C[C@H](OC(=O)[C@H](O)[C@@H](NC(=O)c4ccccc4)C4CCC4)C(C)=C1C3(C)C)[C@]1(OC(C)=O)CO[C@@H]1C[C@@H]2O` [Compound 0720]: under 10 nM; `CCC(=O)O[C@H]1C(=O)[C@@]2(C)[C@H]([C@H](OC(=O)c3ccccc3)[C@]3(O)C[C@H](OC(=O)[C@H](O)[C@@H](NC(=O)c4ccccc4)c4ccc([N+](=O)[O-])cc4)C(C)=C1C3(C)C)[C@]1(OC(C)=O)CO[C@@H]1C[C@@H]2O` [Compound 0732]: under 10 nM.
Next, `CC(=O)O[C@@]12CO[C@@H]1C[C@H](O)[C@@]1(C)C(=O)[C@H](OC(=O)C3CC3)C3=C(C)[C@@H](OC(=O)[C@H](O)[C@@H](NC(=O)OC(C)(C)C)c4ccco4)C[C@@](O)([C@@H](OC(=O)c4ccccc4)[C@H]21)C3(C)C` [Compound 0843]: under 1 nM; `CC(=O)O[C@@]12CO[C@@H]1C[C@H](O)[C@@]1(C)C(=O)[C@H](OC(=O)C3CC3)C3=C(C)[C@@H](OC(=O)[C@H](O)[C@@H](NC(=O)OC(C)(C)C)C4CC4)C[C@@](O)([C@@H](OC(=O)c4ccccc4)[C@H]21)C3(C)C` [Compound 0860]: under 1 nM; `CC(=O)O[C@@]12CO[C@@H]1C[C@H](O)[C@@]1(C)C(=O)[C@H](OC(=O)C3CC3)C3=C(C)[C@@H](OC(=O)[C@H](O)[C@@H](NC(=O)OC(C)(C)C)c4ccc([N+](=O)[O-])cc4)C[C@@](O)([C@@H](OC(=O)c4ccccc4)[C@H]21)C3(C)C` [Compound 0879]: under 1 nM.
Regarding `CC(=O)O[C@@]12CO[C@@H]1C[C@H](O)[C@@]1(C)C(=O)[C@H](OC(=O)C3CC3)C3=C(C)[C@@H](OC(=O)[C@H](O)[C@@H](NC(=O)OC(C)(C)C)c4ccccc4)C[C@@](O)([C@@H](OC(=O)c4ccccc4)[C@H]21)C3(C)C` [Compound 0882], the IC50 was under 1 nM.
With `CC(=O)O[C@@]12CO[C@@H]1C[C@H](O)[C@@]1(C)C(=O)[C@H](OC(=O)C3CC3)C3=C(C)[C@@H](OC(=O)[C@H](O)[C@H](C=C(C)C)NC(=O)c4ccccc4)C[C@@](O)([C@@H](OC(=O)c4ccccc4)[C@H]21)C3(C)C` [Compound 0890] the figure was under 1 nM; with `CC(=O)O[C@@]12CO[C@@H]1C[C@H](O)[C@@]1(C)C(=O)[C@H](OC(=O)C3CC3)C3=C(C)[C@@H](OC(=O)[C@H](O)[C@@H](NC(=O)c4ccccc4)c4cccs4)C[C@@](O)([C@@H](OC(=O)c4ccccc4)[C@H]21)C3(C)C` [Compound 0919], under 1 nM; with `CC(=O)O[C@@]12CO[C@@H]1C[C@H](O)[C@@]1(C)C(=O)[C@H](OC(=O)C3CC3)C3=C(C)[C@@H](OC(=O)[C@H](O)[C@@H](NC(=O)c4ccccc4)C4CC4)C[C@@](O)([C@@H](OC(=O)c4ccccc4)[C@H]21)C3(C)C` [Compound 0923], under 1 nM.
For the compound `CC(=O)O[C@@]12CO[C@@H]1C[C@H](O)[C@@]1(C)C(=O)[C@H](OC(=O)C3CC3)C3=C(C)[C@@H](OC(=O)[C@H](O)[C@@H](NC(=O)c4ccccc4)c4ccccc4)C[C@@](O)([C@@H](OC(=O)c4ccccc4)[C@H]21)C3(C)C` [Compound 0937], the IC50 was under 10 nM.
As for `CCCC(=O)O[C@H]1C(=O)[C@@]2(C)[C@H]([C@H](OC(=O)c3ccccc3)[C@]3(O)C[C@H](OC(=O)[C@H](O)[C@@H](NC(=O)OC(C)(C)C)c4cccnc4)C(C)=C1C3(C)C)[C@]1(OC(C)=O)CO[C@@H]1C[C@@H]2O` [Compound 0966], the IC50 is under 10 nM.
With `CCCC(=O)O[C@H]1C(=O)[C@@]2(C)[C@H]([C@H](OC(=O)c3ccccc3)[C@]3(O)C[C@H](OC(=O)[C@H](O)[C@@H](NC(=O)OC(C)(C)C)c4ccncc4)C(C)=C1C3(C)C)[C@]1(OC(C)=O)CO[C@@H]1C[C@@H]2O` [Compound 0978] the figure was under 1 nM; with `CCCC(=O)O[C@H]1C(=O)[C@@]2(C)[C@H]([C@H](OC(=O)c3ccccc3)[C@]3(O)C[C@H](OC(=O)[C@H](O)[C@@H](NC(=O)OC(C)(C)C)C4CC4)C(C)=C1C3(C)C)[C@]1(OC(C)=O)CO[C@@H]1C[C@@H]2O` [Compound 1020], under 1 nM; with `CCCC(=O)O[C@H]1C(=O)[C@@]2(C)[C@H]([C@H](OC(=O)c3ccccc3)[C@]3(O)C[C@H](OC(=O)[C@H](O)[C@@H](NC(=O)OC(C)(C)C)C(C)C)C(C)=C1C3(C)C)[C@]1(OC(C)=O)CO[C@@H]1C[C@@H]2O` [Compound 1031], under 10 nM.
As for `CCCC(=O)O[C@H]1C(=O)[C@@]2(C)[C@H]([C@H](OC(=O)c3ccccc3)[C@]3(O)C[C@H](OC(=O)[C@H](O)[C@@H](NC(=O)OC(C)(C)C)C4CCC4)C(C)=C1C3(C)C)[C@]1(OC(C)=O)CO[C@@H]1C[C@@H]2O` [Compound 1044], the IC50 was under 1 nM.
With `CCCC(=O)O[C@H]1C(=O)[C@@]2(C)[C@H]([C@H](OC(=O)c3ccccc3)[C@]3(O)C[C@H](OC(=O)[C@H](O)[C@@H](NC(=O)OC(C)(C)C)c4ccccc4)C(C)=C1C3(C)C)[C@]1(OC(C)=O)CO[C@@H]1C[C@@H]2O` [Compound 1060] the figure was under 1 nM.
With `CC(=O)O[C@@]12CO[C@@H]1C[C@H](O)[C@@]1(C)C(=O)[C@H](OC(=O)c3cccs3)C3=C(C)[C@@H](OC(=O)[C@H](O)[C@H](C=C(C)C)NC(=O)OC(C)(C)C)C[C@@](O)([C@@H](OC(=O)c4ccccc4)[C@H]21)C3(C)C` [Compound 1879] the figure was under 10 nM.
